Experimental data from patent US7098204B2 (C.N.R.S., priority 1999, dated 2006).
In brackets after ≈: the same amount, converted by molar mass.

Experiments:
P388 cell line = experiment: Inhibition of cell proliferation, P388; type: cell-based; details: Mus musculus, P388; read-out: IC50 on P388 cell line in μM (parentheses)
HT29-18-C1 cells = experiment: Flow cytometric cell cycle analysis, HT29-18-C1; type: cell-based, human
Protocol: Cell culture and treatments. HT29-18-C1, a subclone of the human colon adenocarcinoma cell line HT29, was cultured in Dulbecco's modified Eagle's medium (Gibco-BRL) supplemented with 10% FCS, 2 mM L-glutamine (Eurobio) and […] gentamycin (Gibco-BRL) at 37° C., 10% CO2. Cells were synchronized by serum deprivation for 48 h. They were then released from growth arrest by the addition of 5% fetal calf serum (FCS). HD, prepared in DMSO, was added immediately to the medium, for 24 h and at final concentrations ranging from 0 to 80 μM. In some experiments HD was added 22 h after serum addition for an additional 24 h. In other experiments HD was added to unsynchronised cells. Cells were then washed and cultured in 5% FCS medium and counted or analysed by FACS at different times.
Cell counts and flow cytometric cell cycle analysis. Cell were counted with a hemocytometer. Cell cycle distribution was analysed by flow cytometry. […] The stained cells were analysed on a FACScan cytofluorimeter using the cellFit Software program (Becton Dickinson Immunocytometry Systems).
The results concerning the cell cycle distribution of HD-treated cells are given on FIG. 10A. […] Cells were then fixed and their cell cycle phase status was determined by FACscan analysis as described in the Experimental Procedures section. […] Cell cycle distribution was analysed every 24 h for a 72 h period. […]

GSK-3β = GSK-3β (Mus musculus, UniProt Q9WV60); experiment: MAP-1B phosphorylation by GSK-3 in cerebellar granule cells; type: cell-based, mice
Protocol: Cerebellar granule cells were isolated from newborn mice and purified according to the method of Hatten using Percoll gradients. Cells were plated onto dishes coated with poly-D-lysine (100 μg/ml) and laminin (50 μg/ml) and grown in serum-free medium for 1 day, the cultures were then treated with HD (1–100 μM) for 20 h. Cultures were fixed with 4% formaldehyde in PBS and stored in PBS at 4° C. Cells were permeabilised with 100% methanol and incubated with primary antibodies against GAP-43 and MAP-1B-P (SMI-31, Affiniti) overnight at 4° C. FITC and Texas Red conjugated secondary antibodies were used (Vector). For western blot analysis, cells were lysed in sample buffer and analysed by 8% SDS-PAGE. Proteins were transferred to nitrocellulose membranes and incubated with an antibody to MAP-1B-P (SMI-31) diluted in block solution (0.1% Tween-20, 3% dried skimmed milk in TBS) for 2 h at room temperature. HRP-conjugated secondary antibodies (Amersham) were used and proteins were visualised using the ECL system (Pierce). Blots were scanned using a flat bed scanner (UMAX Astra 1200S).

protein kinase C γ = protein kinase C γ (Homo sapiens, UniProt P05129); experiment: protein kinase C γ assay; type: biochemical; details: 15 μM ATP
Protocol: Kinases activities were assayed in Buffer A or C (unless otherwise stated), at 30° C., at a final ATP concentration of 15 μM. Blank values were subtracted and activities calculated as pmoles of phosphate incorporated for a 10 min. incubation (usually expressed in % of the maximal activity, i.e. without inhibitors). Controls were performed with appropriate dilutions of Me2SO. In some cases phosphorylation of the substrate was assessed by autoradiography after SDS-PAGE. IC50 values were estimated from the dose-response curves. • CDK1/cyclin B was extracted in homogenisation buffer from M phase starfish (Marthasterias glacialis) oocytes and purified by affinity chromatography on p9^CKShs1-Sepharose beads, from which it was eluted by free p9^CKShs1 as described. The kinase activity was assayed in buffer C, with 1 mg histone H1/ml, in the presence of 15 μM [γ-^32P] ATP (3,000 Ci/mmol; 1 mCi/ml) in a final volume of 30 μl. After 10 min. incubation at 30° C., 25 μl aliquots of supernatant were spotted onto 2.5×3 cm pieces of Whatman P81 phosphocellulose paper, and, 20 sec. later, the filters were washed five times (for at least 5 min. each time) in a solution of 10 ml phosphoric acid/liter of water. The wet filters were counted in the presence of 1 ml ACS (Amersham) scintillation fluid. • GSK-3β was either purified from rabbit muscle or expressed in and purified from insect Sf9 cells. […]

colon, KM20L2 = experiment: Human cancer cell line KM20L2 proliferation; type: cell-based; details: KM-20L2

Chain of GSK-3β (Q9WV60 whole entry): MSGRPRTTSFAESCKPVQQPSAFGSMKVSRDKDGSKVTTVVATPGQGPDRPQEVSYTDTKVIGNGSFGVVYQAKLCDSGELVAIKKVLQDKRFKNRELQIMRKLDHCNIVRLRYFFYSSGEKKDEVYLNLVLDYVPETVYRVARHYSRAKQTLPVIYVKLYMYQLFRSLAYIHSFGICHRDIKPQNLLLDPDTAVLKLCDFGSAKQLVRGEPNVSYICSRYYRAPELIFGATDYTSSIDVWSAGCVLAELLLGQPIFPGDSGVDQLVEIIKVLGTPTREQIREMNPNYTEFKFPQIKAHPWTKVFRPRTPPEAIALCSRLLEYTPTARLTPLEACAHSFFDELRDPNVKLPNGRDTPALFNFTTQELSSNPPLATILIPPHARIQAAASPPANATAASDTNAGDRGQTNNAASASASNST

**Q.** How did the IC50 (P388 cell line) turn out when `NC1=NC(=O)C(=C2CCNC(=O)c3[nH]c(Br)cc32)N1` [hymenialdisine, 4-(2-amino-4-oxo-2-imidazolin-5-ylidene)-2-bromo-4,5,6,7-tetrahydropyrrolo (2,3-c) azepine-8-one] was run?
**A.** 9.9 µM

**Q.** And the cell cycle distribution (HT29-18-C1 cells; 10 μM HD added 22 hr after serum, analysed 14 h later)?
**A.** accumulation of cells in G2/M

**Q.** What about the cell cycle distribution (HT29-18-C1 cells; HD added with serum at time 0, 24 h) of the same compound?
**A.** accumulation of cells in S phase

**Q.** And the “cell morphology and distribution of MAP-1B-P” value (GSK-3β; 1 μM, 10 μM, 25 μM, 20 h)?
**A.** no noticeable effect

**Q.** What about the “MAP-1B-P in axonal processes” value (GSK-3β; 50 μM, 20 h) of the same compound?
**A.** loss of MAP-1B-P from most of the axonal processes

**Q.** And the “MAP-1B-P in axonal processes” value (GSK-3β; 100 μM, 20 h)?
**A.** loss of MAP-1B-P from processes

**Q.** What about the “MAP-1B-P by Western blotting” value (GSK-3β; increasing doses 1–100 μM) of the same compound?
**A.** loss of MAP-1B-P in a dose-dependent manner

**Q.** And the IC50 (protein kinase C γ)?
**A.** 0.5 µM

**Q.** What about the IC50 (colon, KM20L2) of the same compound?
**A.** 8.5 µg/mL (≈ 26.2 µM)
